The values below come from patent US20260207551A1, “PHOSPHOGLICERATE DEHYDROGENASE INHIBITORS FOR THE TREATMENT OF FIBROSIS” (CHIESI FARMACEUTICI S.P.A., priority 2022, published 2026).

Bounds are passed on as bounds.

The subject of one assay is Collagen I. Nature of the assay: Fibroblast to myofibroblast transition (FMT) in vitro assay: Collagen I detection. The format is cell-based. The following applies: Homo sapiens, NHLF, 72 h, read-out: Collagen-I pIC50 (converted).
A further assay relates to synthesis of 13C3-serine. Briefly: PK/PD model: in vivo [13C6] glucose tracing, inhibition of 13C3-serine synthesis. On the set-up: species or system mouse male (C57BL/6J). The following applies: 1 h; for decrease of brain serine concentration: not statistically significant. On the procedure: As PHGDH catalyzes the rate-limiting step of glucose-derived serine synthesis, a pharmacokinetic/pharmacodynamic (PK/PD) experiment aimed to assess the inhibition of the synthesis of ^13C3-serine after oral administration of ^13C6-glucose was performed in mouse male (C57BL/6J).
Animals were fasted overnight before treatment. Following 0.5 h from administration of either Compound 19 at dose of 300 mg/kg or vehicle (0.5% Tween 80, 0.5% Methylcellulose in H2O), ^13C6-glucose was administered by oral gavage (2 g/kg, Merck Life Science Srl). Blood, lung, and brain samples were collected at 1 h, 6.5 h and 24.5 h after treatment with Compound 19 or vehicle.
The tissue concentration of ^13C3-serine was determined by a liquid chromatography-tandem mass spectrometry (LC/MS/MS) assay. GraphPad Prism (version 8.1.2) was used for drawing graphs and for statistical analysis. Plasma or tissue homogenate samples (tissues were homogenized with a water/acetonitrile 50/50 mixture) were extracted with 3 volumes of acetonitrile. Supernanatant was injected into HPLC system (Agilent 1260 Quaternary Pump equipped with an Agilent 1200 High Performance Autosampler SL; Agilent), using a Kinetex EVO C18 analytical column (100 A, 50×2.1 mm, 2.6 μm; Phenomenex) for the analysis of Compound 19 or an InfinityLab Poroshell 120 Hilic-Z (50×2.1 mm 2.7 μm; Agilent) for the analysis of ^13C3-serine. The mobile phases consisted of 0.1% formic acid in water (solvent A) and 0.1% formic acid in acetonitrile (solvent B); chromatographic separation was performed with gradient elution method (see conditions below): • Compound 19 (0.0-0.5 min, 10% B; 0.5-3.0 min, gradient to 90% B; 3.0-5.0 min. 90% B; 5.0-6.0 min, gradient to 10% B; 6.0-10.0 min, 10% B—flow rate: 0.4 mL/min). • S^13C3-serine (0.0-0.5 min, 95% B; 0.5-4.0 min, gradient to 60% B; 4.0-5.0 min, 60% B; 5.0-6.0 min, gradient to 95% B; 6.0-10.0 min, 95% B—flow rate: 0.4 mL/min).
Mass spectrometric analysis was performed on a linear ion trap triple quadrupole mass spectrometer (4000 Q TRAP; AB SCIEX) equipped with a turbo spray ion source; mass spectrometer was operated in positive ion mode and quantification was achieved by multiple reaction monitoring (MRM) mode. Peak integration was performed using Analyst (version 1.6.2.). GraphPad Prism (version 8.1.2) was used for drawing graphs and for statistical analysis.
After 0.5 h from administration of Compound 19a at dose of 3, 10, 30, 100 and 300 mg/kg po, Compound 19 at dose of 300 mg/kg po or vehicle po (0.5% Tween 80, 0.5% Methylcellulose in H2O), mice received ^13C6-glucose by oral gavage (2 g/kg, Merck Life Science Srl). […] Blood was withdrawn by cardiac puncture and collected in heparin tubes.

Assay [1] deals with bleomycin-induced pulmonary fibrosis. Briefly: Bleomycin-induced pulmonary fibrosis in male mice (Example 6). The format is in vivo, Male C57BL6/J mice. Here is the method:
The effect of Compound 19a was evaluated in a murine model (C57BL/6J mouse strain) in which fibrosis was induced by a double oropharyngeal (OA) instillation of bleomycin. The Compound 19a was administered under therapeutic regimen for 14 days, starting the treatments at day 7 from the first instillation of Bleomycin OA up to the day 21, considered the endpoint for this model.
All mice were maintained under pathogen-free conditions and had free access to food and water.
Lung injury was induced by double OA instillation of bleomycin hydrochloride (BLM, BAXTER, Deerfield, IL, USA) at day 0 and day 4 at the dose of 0.03 U/mouse in […] of saline solution (NaCl 0.9%). Control animals received double OA instillation of […] of saline solution.
The Compound 19a was orally administered twice daily at the three doses of 3, 30 and 100 mg/Kg 10 mL/Kg, using as vehicle for dissolution the 0.5% Tween 80, 0.5% Methylcellulose in H2O.
On day 21, the respiratory system mechanics were measured using the FlexiVent System (SCIREQ Inc., Montreal Qc, Canada) (Vanoirbeek et al., 2010).
Briefly, mice were anesthetized by intraperitoneal injection of ketamine (Anesketin®, Dechra Inc., Handelsweg, NL) and xylazine (Xilagesic®, Calier Inc., Barcelona, ES) solution (100 mg/Kg and 10 mg/Kg, respectively). Once anesthesia was achieved, to analyze forced vital capacity (FVC), anesthetized mice were tracheotomized using an 18-gauge metal cannula, connected via an endotracheal cannula to the FlexiVent and ventilated at a respiratory rate of 150 breaths/min and tidal volume of 10 mL/Kg against a positive end-expiratory pressure of 3 cm H2O to achieve a mean lung volume close to that during spontaneous breathing. To prevent spontaneous breathing mice also received pancuronium bromide at 1 mg/Kg intraperitoneally. FlexiVent software version 8.1 was used to perform the perturbations.
Immediately after the in-life evaluation, plasma and bronchoalveolar lavage fluid (BALF) samples were collected.
First, blood was collected by cardiac puncture, and plasma was obtained after centrifugation of blood at 2000×g and 4° C. for 10 minutes.
Subsequently, the lungs were gently rinsed three times using a tracheal cannula with 0.6 mL of clear BAL solution. The obtained BALF was centrifuged at 1000×g and 4° C. for 10 minutes. The cell-free supernatant was used for biomarkers quantitative determination.
The following biomarkers were determined in BALF and plasma samples by commercially available ELISA kits: Collagen I (evaluated in BALF), an index of collagen accumulation; matrix metallopeptidase 7 (MMP-7, evaluated in BALF), indicator of aberrant fibrogenesis and ECM remodeling and surfactant protein D (SP-D, evaluated in PLASMA), marker of alveolar epithelial cell damage and dysfunction.
Lastly, the entire lungs were resected, fixed with formalin and embedded in paraffin. Sections were stained with Masson's trichrome to assess the grade and severity of fibrosis and collagen deposition.

For a further assay, the system named is αSMA. Briefly: Phenotypic assay: high content aSMA staining in NHLF cells. The format is cell-based, Human. The following applies: NHLF, 72 h incubation. Here is the method:
NHLF cells (Lonza #CC2512) were seeded as 2000 cells/well in 384-well plates in MEM medium w/o serine and glycine (Sigma #M2279)+1% pen/strep+5 mM L-glutamine +10% FBS and incubated overnight at 37° C., 5% CO2.
The next day, cells were washed with PBS and starvation MEM medium w/o serine and glycine (0% FBS) was added and cells were incubated overnight at 37° C., 5% CO2. The day after, cells were pre-incubated with compounds or vehicle (0.3% DMSO) for 1 h. Compounds were tested at 9 consecutive 3-fold dilutions starting from 30 μM. Each compound was tested in duplicate. Cells were further incubated for 72 h at 37° C., 5% CO2, 95% humidity. After 72 h of incubation, αSMA expression was quantified using immunostaining: • Fixation in 4% paraformaldehyde, • Blocking with 3% BSA, 2% FBS, 0.2% Triton-X in PBS, • Primary ab. anti-αSMA (AbCam #ab7817) diluted 500× in blocking buffer • Anti-mouse secondary ab. AF488 (ThermoFisher #A11029) • % of αSMA positive cells was determined by High Content Imaging (Molecular Device), data analysis was performed using MetaXpress software (Molecular Devices) and % of αSMA positive was further used to calculate % of inhibition for tested compounds. Total cell number was determined by Hoechst staining and % of viability over TGFβ stimulated controls was calculated.

Setting [2] is: Compound 19a 100 mg/Kg bid, Nintedanib esylate 50 mg/Kg bid.

Regarding `CC(C)C(C(=O)O)c1ccc(C2(NC(=O)c3cc4c(Cl)c(Cl)ccc4n3C)CCOC2)cc1` (racemic) [Compound 19a, Diasteroisomer 2 of (±)-2-(4-(3-(4,5-Dichloro-1-methyl-1H-indole-2-carboxamido)tetrahydro-furan-3-yl)phenyl)-3-methylbutanoic acid], the IC50 in the assay with Collagen I is 126 nM. Moreover, the “decrease of brain serine concentration” value with synthesis of 13C3-serine (100 mg/kg po) was 12%. Moreover, the “decrease of brain serine concentration” value in the assay with synthesis of 13C3-serine (300 mg/kg po) came out at 30%. Further, in the assay on synthesis of 13C3-serine (plasma and lung, both tissues, po, estimated), the “ED80 (inhibition of labelled serine)” value is reported as “around 30 mg/kg”. Further, the “fibrotic tissue quantification by automated analysis (FIG. 19B)” value in assay [1] (100 mg/Kg) was “effect comparable to Nintedanib”. For the same molecule, in assay [1] (setting [2]), the “reduction of Collagen I in BALF” value is given as 52%, the “reduction of MMP-7 in BALF” value is given as over 100% and the “reduction of SP-D levels in plasma” value came out at 74%. Besides, the “improvement of FVC decline” value in assay [1] (Compound 19a 100 mg/kg bid, Nintedanib esylate 50 mg/Kg bid, vs BLM/vehicle) is 77%. For the same molecule, the “reduction of Ashcroft score” value in assay [1] (day 21, dose not stated) turned out to be 56%. The “aSMA pIC50” value in the assay with αSMA came out at 6.6.
